Here are results for six compounds from the NIST ThermoML archive (doi:10.1016/j.tca.2012.05.004).

The conditions of the data set: 101.33 kPa, Liquid, Vibrating tube method.

By mass density is commonly meant mass per unit of volume.

SMILES strings stand for the structures. Numbers after ± are expanded uncertainties.

Regarding `CC(C)O` [propan-2-ol], the mass density (288.15 K) is 789.337 ± 0.31 kg/m3; the mass density (293.15 K) stood at 785.198 ± 0.31 kg/m3; the mass density (298.15 K) was found to be 780.987 ± 0.31 kg/m3; the mass density (303.15 K) is 776.718 ± 0.31 kg/m3; the mass density (308.15 K) came to 772.371 ± 0.31 kg/m3; the mass density (313.15 K) was found to be 767.935 ± 0.31 kg/m3.

For `CCCC(C)O` (stereo unspecified) [pentan-2-ol], the mass density reads like this: (288.15 K) 813.272 ± 0.3 kg/m3; (293.15 K) 809.305 ± 0.31 kg/m3; (298.15 K) 805.27 ± 0.31 kg/m3; (303.15 K) 801.157 ± 0.31 kg/m3; (308.15 K) 796.97 ± 0.31 kg/m3; (313.15 K) 792.702 ± 0.31 kg/m3.

For the compound `CCCCCCC(C)O` (stereo unspecified) [2-octanol], the mass density reads like this: (288.15 K) 824.028 ± 0.3 kg/m3; (293.15 K) 820.313 ± 0.3 kg/m3; (298.15 K) 816.559 ± 0.3 kg/m3; (303.15 K) 812.768 ± 0.3 kg/m3; (308.15 K) 808.94 ± 0.31 kg/m3; (313.15 K) 805.079 ± 0.31 kg/m3.

Consider `CCC(C)O` (stereo unspecified) [butan-2-ol], for which the mass density is 810.879 ± 0.3 kg/m3 (288.15 K); 806.837 ± 0.31 kg/m3 (293.15 K); 802.716 ± 0.31 kg/m3 (298.15 K); 798.513 ± 0.31 kg/m3 (303.15 K); 794.218 ± 0.31 kg/m3 (308.15 K); 789.832 ± 0.31 kg/m3 (313.15 K).

On to `CCCCC(C)O` (stereo unspecified) [2-hexanol], for which the mass density (288.15 K) was 818.064 ± 0.3 kg/m3; the mass density (293.15 K) is 814.174 ± 0.3 kg/m3; the mass density (298.15 K) was found to be 810.227 ± 0.31 kg/m3; the mass density (303.15 K) is recorded as 806.225 ± 0.31 kg/m3; the mass density (308.15 K) is 802.16 ± 0.31 kg/m3; the mass density (313.15 K) was found to be 798.04 ± 0.31 kg/m3.

For `ClCCCl` [1,2-dichloroethane], the mass density by setting is: (288.15 K) 1259.99 ± 0.58 kg/m3; (293.15 K) 1252.77 ± 0.57 kg/m3; (298.15 K) 1245.49 ± 0.56 kg/m3; (303.15 K) 1238.18 ± 0.56 kg/m3; (308.15 K) 1230.84 ± 0.55 kg/m3; (313.15 K) 1223.46 ± 0.54 kg/m3.
